Some test systems named below: DU-145 prostate; HL-60(TB) leukemia; MCF7 breast; RPMI-8226 leukemia; SNB-75 CNS; TK-10 renal.
Holding throughout (assay): NCI-60 cell line screen, 48 h

This is an account of results in PubChem BioAssay (NCI).

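Cells were grown in 96-well plates and exposed to each compound for 48 hours at five concentrations; endpoints were interpolated linearly between bracketing concentrations, or set to the highest concentration if not reached. TGI: concentration producing complete growth inhibition.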

Take `CC1OC(O[C@H]2C3C=CO[C@@H](OC4OC(CO)C(O)C(O)C4O)C3[C@@]3(COC(=O)/C=C/c4ccccc4)O[C@@H]23)C(O)C(O)C1O` (some centres undefined): the TGI in the assay with DU-145 prostate, with HL-60(TB) leukemia, in the assay with MCF7 breast, with RPMI-8226 leukemia, with SNB-75 CNS and in the assay on TK-10 renal was more than 100 µM each time.
As for `CN1CC[C@]2(c3cccc(O)c3)CC(=O)/C(=C/c3ccccc3)[C@@H]1C2`, the TGI in the assay with DU-145 prostate was 17.5 µM; in the assay on HL-60(TB) leukemia, 5.33 µM; in the assay with MCF7 breast, 6.06 µM; in the assay with RPMI-8226 leukemia, 4.84 µM; with SNB-75 CNS, 5.27 µM; in the assay on TK-10 renal it was 27.1 µM.
In the case of `CN1CCN(Cc2cc3c(nn2)-c2ccccc2C3=O)CC1`, the TGI is more than 100 µM in the assay with DU-145 prostate; 72.5 µM with HL-60(TB) leukemia; more than 100 µM in the assay with MCF7 breast; more than 100 µM with RPMI-8226 leukemia; more than 100 µM in the assay with SNB-75 CNS; more than 100 µM in the assay on TK-10 renal.
`O=C1/C(=C/c2ccc(Cl)cc2)CCCc2ccccc21`: the TGI in the assay with DU-145 prostate is 59 µM; with HL-60(TB) leukemia it was 33.5 µM; with MCF7 breast, 65.8 µM; in the assay with RPMI-8226 leukemia, 69 µM; in the assay on SNB-75 CNS, more than 100 µM; in the assay on TK-10 renal it was 58.7 µM.
`Nc1ncnc2c1ccn2C/C=C/CO`: the TGI in the assay with DU-145 prostate, in the assay with HL-60(TB) leukemia, in the assay with MCF7 breast, in the assay with RPMI-8226 leukemia, with SNB-75 CNS and in the assay with TK-10 renal was more than 100 µM in each case.
For `C=C(C)[C@H]1C2=CC(C(=O)OC)=C(C[C@H](C(=C)C)[C@@H](O)[C@@H](O)C3=C[C@H]1OC3=O)O2`, the TGI in the assay on DU-145 prostate, with HL-60(TB) leukemia, in the assay on MCF7 breast, in the assay with RPMI-8226 leukemia, with SNB-75 CNS and in the assay with TK-10 renal was more than 100 µM in each case.
For the compound `CN(C)Cc1cc(C(=O)/C=C/c2ccc([N+](=O)[O-])cc2)cc(CN(C)C)c1O`, the TGI in the assay with DU-145 prostate stood at 23 µM; with HL-60(TB) leukemia, 5.46 µM; with MCF7 breast it was 34.9 µM; in the assay with RPMI-8226 leukemia, 6.98 µM; in the assay with SNB-75 CNS, 33.3 µM; with TK-10 renal, 45.7 µM.
Regarding `C=CCn1c(=O)ccn(/C(=C/C(=O)OCC)C(=O)OCC)c1=O`, the TGI amounted to 50.2 µM in the assay on DU-145 prostate; 3.98 µM in the assay on HL-60(TB) leukemia; 17.1 µM in the assay with MCF7 breast; 31.4 µM in the assay on RPMI-8226 leukemia; 30.4 µM with SNB-75 CNS; 24.1 µM with TK-10 renal.
With `CC(C)N1CCN(c2ccc(OCC3COC(Cn4cncn4)(c4ccc(Cl)cc4Cl)O3)cc2)CC1` (centres undefined), the TGI with DU-145 prostate is 31.5 µM; in the assay with HL-60(TB) leukemia, 33.3 µM; in the assay on MCF7 breast, 28.9 µM; in the assay on RPMI-8226 leukemia, 29.7 µM; in the assay on SNB-75 CNS, 27.5 µM; in the assay on TK-10 renal, 26.1 µM.
As for `CCN(CC)c1ccc(/C=C/c2ccnc3ccccc23)cc1`, the TGI with DU-145 prostate, in the assay with HL-60(TB) leukemia, with MCF7 breast, in the assay with RPMI-8226 leukemia, in the assay on SNB-75 CNS and in the assay with TK-10 renal was more than 100 µM each time.
`Cc1cc(N(C)C)c2ccccc2[n+]1CCCCCCCCCC[n+]1c(C)cc(N(C)C)c2ccccc21`: the TGI in the assay on DU-145 prostate came to 16.2 µM; in the assay with HL-60(TB) leukemia it was 2.18 µM; with MCF7 breast, 26.3 µM; in the assay on RPMI-8226 leukemia, 4.33 µM; in the assay on SNB-75 CNS, 8.91 µM; in the assay with TK-10 renal, 18 µM.
Turning to `Cc1ccc(/C=C2/N=C(N/N=C\C(O)C(O)C(O)C(O)CO)NC2=O)cc1` (centres undefined), the TGI in the assay on DU-145 prostate, in the assay on HL-60(TB) leukemia, in the assay on MCF7 breast, in the assay with RPMI-8226 leukemia, in the assay with SNB-75 CNS and in the assay on TK-10 renal was more than 100 µM throughout.
Regarding `CC(C)Oc1cccc(N2C(=NCc3c[nH]c4ccccc34)Nc3ccncc3S2(=O)=O)c1`, the TGI was more than 100 µM with DU-145 prostate; more than 100 µM in the assay on HL-60(TB) leukemia; more than 100 µM with MCF7 breast; 30 µM in the assay with RPMI-8226 leukemia; 67.7 µM in the assay with SNB-75 CNS; 97.4 µM in the assay on TK-10 renal.
Take `COc1cc(O)c2c(=O)c(OC)c(-c3ccc(OC)c(O)c3)oc2c1`: the TGI in the assay on DU-145 prostate, in the assay with HL-60(TB) leukemia, in the assay with MCF7 breast, with RPMI-8226 leukemia, in the assay with SNB-75 CNS and with TK-10 renal was more than 100 µM throughout.
With `Nc1ncc2c(n1)-c1ccccc1OC2N1CCCC1` (centres undefined), the TGI in the assay with DU-145 prostate is more than 100 µM; in the assay with HL-60(TB) leukemia, 51.7 µM; in the assay on MCF7 breast it was more than 100 µM; with RPMI-8226 leukemia, more than 100 µM; with SNB-75 CNS, more than 100 µM; with TK-10 renal, more than 100 µM.
On to `COc1ccc(C(=O)NCCN(C)C)c2nc3ccccc3cc12`, for which the TGI with DU-145 prostate is 3.85 µM; with HL-60(TB) leukemia, 2.15 µM; with MCF7 breast, 3.99 µM; in the assay on RPMI-8226 leukemia, 6.71 µM; with SNB-75 CNS, 13.3 µM; in the assay with TK-10 renal, 5.42 µM.
Consider `CC(C)(C)OC(=O)NC(CSSCC(NC(=O)OC(C)(C)C)C(=O)O)C(=O)O` (centres undefined), for which the TGI in the assay on DU-145 prostate, in the assay on HL-60(TB) leukemia, in the assay on MCF7 breast, in the assay with RPMI-8226 leukemia, with SNB-75 CNS and in the assay with TK-10 renal was more than 100 µM throughout.
As for `C[C@@H]1CCC2[C@@H](C)[C@@H](O[C@H]3O[C@@H]4O[C@@]5(C)CCC6[C@H](C)CCC([C@H]3C)[C@]64OO5)O[C@@H]3O[C@@]4(C)CCC1[C@@]23OO4` (some centres undefined), the TGI with DU-145 prostate is more than 25 µM; with HL-60(TB) leukemia, more than 5.22 µM; in the assay on MCF7 breast it was more than 25 µM; with RPMI-8226 leukemia, more than 7.26 µM; in the assay on SNB-75 CNS it was more than 25 µM; in the assay on TK-10 renal it was more than 25 µM.
As to `COc1cc(C=O)ccc1O`, the TGI in the assay with DU-145 prostate, in the assay on HL-60(TB) leukemia, in the assay with MCF7 breast, in the assay on RPMI-8226 leukemia, in the assay on SNB-75 CNS and with TK-10 renal was more than 100 µM in each case.
For the compound `CC(C)(CO)CNc1nc(N)nc(Cl)c1/C=N/O`, the TGI in the assay with DU-145 prostate, in the assay on HL-60(TB) leukemia, with MCF7 breast, in the assay with RPMI-8226 leukemia, in the assay on SNB-75 CNS and with TK-10 renal was more than 100 µM in each case.
With `O=[N+]([O-])c1cc2oc(CSc3ccccc3)nc2cc1Cl`, the TGI in the assay with DU-145 prostate was more than 100 µM; in the assay with HL-60(TB) leukemia it was more than 100 µM; in the assay with MCF7 breast, more than 100 µM; with RPMI-8226 leukemia, more than 100 µM; in the assay on SNB-75 CNS it was 67.5 µM; in the assay with TK-10 renal, more than 100 µM.
For the compound `OCCCc1ccc2c(c1)[C@H](CO)[C@@H](c1ccc(O)cc1)O2`, the TGI with DU-145 prostate, with HL-60(TB) leukemia, in the assay with MCF7 breast, in the assay with RPMI-8226 leukemia, in the assay on SNB-75 CNS and in the assay on TK-10 renal was more than 100 µM each time.
Turning to `CCN(C(=O)N[C@@H](C)C(=O)N[C@@H](Cc1ccccc1)C(=O)OC)c1ccccc1`, the TGI in the assay on DU-145 prostate, in the assay with HL-60(TB) leukemia, in the assay with MCF7 breast, in the assay on RPMI-8226 leukemia, in the assay with SNB-75 CNS and in the assay with TK-10 renal was more than 100 µM each time.
As for `O=c1c2c(no[n+]2[O-])c2ccccc2n1-c1ccccc1`, the TGI in the assay with DU-145 prostate was more than 74.2 µM; with HL-60(TB) leukemia, 15.3 µM; in the assay with MCF7 breast it was 15.6 µM; in the assay on RPMI-8226 leukemia, 42.8 µM; in the assay on SNB-75 CNS it was 19.2 µM; with TK-10 renal, 27.2 µM.
Turning to `Cn1ncc2c(NCc3ccccc3)ncnc21`, the TGI in the assay on DU-145 prostate, in the assay with HL-60(TB) leukemia, with MCF7 breast, in the assay with RPMI-8226 leukemia, in the assay with SNB-75 CNS and in the assay on TK-10 renal was more than 100 µM each time.
Consider `[N-]=[N+]=CC(=O)OC(CCl)CCl`, for which the TGI in the assay on DU-145 prostate, in the assay on HL-60(TB) leukemia, in the assay with MCF7 breast, in the assay with RPMI-8226 leukemia and with TK-10 renal was more than 100 µM in each case.
Turning to `O=C1CSC2(CC(/C=C/c3cccs3)=NN2c2cccc(S(=O)(=O)O)c2)N1c1nc2ccccc2s1` (centres undefined), the TGI in the assay on DU-145 prostate, with HL-60(TB) leukemia, in the assay with MCF7 breast, in the assay with RPMI-8226 leukemia, in the assay with SNB-75 CNS and in the assay with TK-10 renal was more than 100 µM each time.
On to `Cc1ccsc1/C=N/Nc1cnccn1`, for which the TGI in the assay on DU-145 prostate, with HL-60(TB) leukemia, in the assay with MCF7 breast, in the assay on RPMI-8226 leukemia, in the assay with SNB-75 CNS and in the assay with TK-10 renal was more than 100 µM in each case.
For `c1ccc(C2=NOC(c3ccccc3)N2C23CC4CC(CC(C4)C2)C3)cc1` (centres undefined), the TGI with DU-145 prostate, in the assay on HL-60(TB) leukemia, in the assay on MCF7 breast, with RPMI-8226 leukemia, in the assay on SNB-75 CNS and in the assay with TK-10 renal was more than 10 µM each time.
Regarding `O=C(O)c1cccc(S(=O)(=O)NN2C(=O)CSC2c2ccc(Cl)cc2Cl)c1` (centres undefined), the TGI with DU-145 prostate was more than 100 µM; in the assay with HL-60(TB) leukemia it was 34 µM; with MCF7 breast it was more than 100 µM; in the assay with RPMI-8226 leukemia, more than 100 µM; in the assay with SNB-75 CNS it was more than 100 µM; in the assay with TK-10 renal, more than 100 µM.
